Reference: EP0348170A2, “Antiviral pyrimidine derivatives” (Lee, Moses Nam Fong, priority 1988, dated 1989)
≈ marks a conversion by molar mass, not a printed value.

Tests used:
HIV = assay: Antiviral assay: inhibition of the killing of HIV-infected T4 lymphocytes (CEM cell line), XTT formazan readout; format: cell-based; conditions: for therapeutic index (IC50 divided by EC50): in cell culture; for EC50: Human immunodeficiency virus 1, CCRF-CEM, read-out: EC50, Inhibition of the killing of HIV-infected T4-lymphocytes
Procedure: The procedure used in the test for agents active against (HIV) is designed to detect agents acting at any stage of the virus reproductive cycle. The assay basically involves the killing of T4 lymphocytes by HIV. Small amounts of HIV are added to cells, and at least two complete cycles of virus reproduction are necessary to obtain the required cell killing. Agents which interact with virions, cells, or virus gene-products to interfere with viral activities will protect cells from cytolysis. The system is automated in several features to accommodate large numbers of candidate agents, and is generally designed to detect anti-HIV activity. However, compounds which degenerate or are rapidly metabolized in the culture conditions may not show activity in this screen. Also, while every attempt has been made to reduce variability, precise values for EC₅₀, IC₅₀, and Therapeautic Index are not possible. All tests are compared with a positive (AZT-treated) control done at the same time under identical conditions.
• 1. T4 lymphocytes (CEM cell line) are exposed to HIV at a virus to cell ratio approximately 0.05, and plated along with noninfected control cells in 96-well microtiter plates. • 2. The candidate agent is dissolved in dimethyl sulfoxide (unless otherwise instructed), then diluted 1:200 in cell culture medium. Further dilutions (half-log₁₀) are prepared before adding to an equal volume of medium containing either infected or noninfected cells. • 3. Cultures are incubated at 37 °C in a 5% carbon dioxide atmosphere for 6 or 7 days. • 4. The tetrazolium salt, XTT, is added to all wells, and cultures are incubated to allow formazan color development by viable cells. • 5. Individual wells are analyzed spectrophotometrically to quantitate formazan production, and in addition are viewed microscopically for detection of viable cells and confirmation of protective activity. • 6. Drug-treated virus-infected cells are compared with drug-treated noninfected cells and with other appropriate controls (untreated infected and untreated noninfected cells, drug-containing wells without cells, etc.) on the same plate. • 7. Data are reviewed in comparison with other tests done at the same time, and a determination about activity is made.

Vero cells = assay: Effect on the replication of Vero cells; format: cell-based; conditions: for inhibition at 100 µg/mL: Conc. 100 ug/ml
Procedure: A second experiment shown in Table II herebelow was conducted to show the effects of various compounds on replication of Vero cells. […] This is indicative of much lower toxicity than AZT, (Compound No. 1) which inhibit a much higher percentage of these cells at a given concentration. TABLE II [table]

SMILES	therapeutic index (IC50 divided by EC50) (HIV)	inhibition at 100 µg/mL (Vero cells; Chlorocebus sabaeus, Vero) [%]	EC50 (HIV) [µg/mL]	also measured
Cc1cn([C@H]2C[C@H](N=[N+]=[N-])[C@@H](CO)O2)c(=O)[nH]c1=O [AZT, 3′-azido-3′-deoxythymidine, reference compound]	about 100	86		inhibition at 10 µg/mL (Vero cells; Chlorocebus sabaeus, Vero, Conc. 10 ug/ml): 21%
Cc1cn([C@H]2C=C(n3ccnn3)[C@@H](CO)O2)c(=O)[nH]c1=O [Compound 2, 1-[2′,3′-Didehydro-2′,3′-dideoxy-3′-(1˝-1˝,2˝,3˝-triazolo)ribofuranosyl]thymine]			> 100	
C#CC1=C[C@H](n2cc(C)c(=O)[nH]c2=O)O[C@@H]1CO [Compound 3, 1-(2′,3′-Didehydro-2′,3′-dideoxy-3′-ethynylribofuranosyl)thymine]			> 100	
Cc1cn([C@H]2C=C(C#N)[C@@H](CO)O2)c(=O)[nH]c1=O [Compound 4, 1-(3′-Cyano-2˝,3˝-didehydro-2′,3′-dideoxyribofuranosyl)thymine]			> 100	
Cc1nnc(S(=O)(=O)C2=C[C@H](n3cc(C)c(=O)[nH]c3=O)O[C@@H]2CO)s1 [Compound 5, 1-[2′,3′-Didehydro-2′,3′-dideoxy-3′-(2˝-sulfono-5˝-methyl-1˝,3˝,4˝-thiadiazolo)ribofuranosyl]thymine]	~170	20	4.9 (≈ 12.7 µM)	inhibition at 50 µg/mL (Vero cells; Chlorocebus sabaeus, Vero, Conc. 50 ug/ml): 0%; inhibition at 75 µg/mL (Vero cells; Chlorocebus sabaeus, Vero, Conc. 75 ug/ml): 10%; inhibition of Vero cells, in words (Vero cells; fast growing Vero cells): little inhibition
